In brackets after ≈: the same amount, converted by molar mass. Read-outs that look alike come from different tables or passages of the source. Non-standard residues stand in square brackets, D forms with d. Residues, ends and D or L forms follow the SMILES beside them. Orn = NCCC[C@H](N)C(=O)O
Key:
[1] = tested on: C. beijerinckii B504; experiment: MIC test, anaerobes; assay type: cell-based
Procedure: (§1) The resveratrol derivatives were serially diluted in cMHB (BD Difco) in 96-well microplates. Plates were then inoculated with the indicator bacteria at a final concentration of 5 × 10^5 CFU/mL and incubated at 37 °C for 20 h. In the case of the anaerobic bacteria (Clostridium and Clostridioides), the test was performed following the recommendation of CLSI for anaerobes[77] but using RCM medium instead of cMHB. The cultures were cultivated inside an anaerobic chamber at 37 °C for 24 h. All the tests were performed in triplicate.

[2] = tested on: C. ihumii AP5; experiment: MIC test, anaerobes; assay type: cell-based
Procedure: as §1

[3] = tested on: S.aureus LMG8224; experiment: microbe, parasite or virus in culture; assay type: cell-based, Staphylococcus aureus; conditions: for MIC: Staphylococcus aureus, LMG8224, 20 h, read-out: Minimal Inhibition Concentration (MIC) S.aureus LMG8224
[4] = tested on: E. faecium LMG16003; experiment: microbe, parasite or virus in culture; assay type: cell-based; conditions: for MIC: Enterococcus faecium, LMG16003, 20 h, read-out: Minimal Inhibition Concentration (MIC) E. faecium LMG16003
[5] = tested on: E. faecalis LMG08222; experiment: microbe, parasite or virus in culture; assay type: cell-based, Enterococcus faecalis; conditions: for MIC: Enterococcus faecalis, LMG08222, 20 h, read-out: Minimal Inhibition Concentration (MIC) E. faecalis LMG08222
[6] = tested on: panel of aerobic and anaerobic Gram-positive bacteria; experiment: organism not typed; assay type: cell-based
[7] = tested on: E. faecalis LMG16216; experiment: microbe, parasite or virus in culture; assay type: cell-based, Enterococcus faecalis; conditions: for MIC: Enterococcus faecalis, LMG16216, 20 h, read-out: Minimal Inhibition Concentration (MIC) E. faecalis LMG16216
[8] = tested on: S.aureus LMG15975; experiment: microbe, parasite or virus in culture; assay type: cell-based, Staphylococcus aureus; conditions: for MIC: Staphylococcus aureus, LMG15975, 20 h, read-out: Minimal Inhibition Concentration (MIC) S.aureus LMG15975
[9] = tested on: B. cereus ATCC14579; experiment: microbe, parasite or virus in culture; assay type: cell-based, Bacillus cereus; conditions: for MIC: Bacillus cereus, ATCC14579, 20 h, read-out: Minimal Inhibition Concentration (MIC) B. cereus ATCC14579
[10] = tested on: E. faecalis V583; experiment: microbe, parasite or virus in culture; assay type: cell-based, Enterococcus faecalis; conditions: for MIC: Enterococcus faecalis, V583, 20 h, read-out: Minimal Inhibition Concentration (MIC) E. faecalis V583
[11] = tested on: C. tetani CECT4629; experiment: microbe, parasite or virus in culture; assay type: cell-based; conditions: for MIC: Clostridium tetani, CECT4629, 24 h, read-out: Minimal Inhibition Concentration (MIC) C. tetani CECT4629
[12] = tested on: S.aureus LMG10147; experiment: microbe, parasite or virus in culture; assay type: cell-based, Staphylococcus aureus; conditions: for MIC: Staphylococcus aureus, LMG10147, 20 h, read-out: Minimal Inhibition Concentration (MIC) S.aureus LMG10147
[13] = tested on: C. botulinum CECT551; experiment: microbe, parasite or virus in culture; assay type: cell-based; conditions: for MIC: Clostridium botulinum, CECT551, 24 h, read-out: Minimal Inhibition Concentration (MIC) C. botulinum CECT551
[14] = tested on: B. cereus ATCC10987; experiment: microbe, parasite or virus in culture; assay type: cell-based, Bacillus cereus; conditions: for MIC: Bacillus cereus, ATCC10987, 20 h, read-out: Minimal Inhibition Concentration (MIC) B. cereus ATCC10987
[15] = tested on: E. faecium LMG11423; experiment: microbe, parasite or virus in culture; assay type: cell-based; conditions: for MIC: Enterococcus faecium, LMG11423, 20 h, read-out: Minimal Inhibition Concentration (MIC) E. faecium LMG11423
[16] = tested on: C. perfringens CECT376; experiment: microbe, parasite or virus in culture; assay type: cell-based; conditions: for MIC: Clostridium perfringens, CECT376, 24 h, read-out: Minimal Inhibition Concentration (MIC) C. perfringens CECT376
[17] = tested on: C. difficile CECT531; experiment: microbe, parasite or virus in culture; assay type: cell-based, Clostridioides difficile; conditions: for MIC: Clostridioides difficile, CECT531, 24 h, read-out: Minimal Inhibition Concentration (MIC) C. difficile CECT531
[18] = tested on: E. coli LMG8224; experiment: Outer membrane permeabilization test (MIC with or without L-11 peptide); conditions: for MIC: Escherichia coli, LMG8224, read-out: MIC (μM) L-11 + 0 μM; for MIC (μM) L-11 + 4 μM: presence of 4 μM L-11 outer-membrane-perturbing peptide
[19] = tested on: B. cereus ATCC10987; experiment: Membrane potential assay DiSC3(5); conditions: 2×, 1×, and 0.5× the MIC
[20] = tested on: B. cereus ATCC10987; experiment: Intracellular ATP level quantification (BacTiter-Glo); conditions: 32 μM of the compounds (100 μM for CCCP), 30, 60, and 120 min, 37 °C
[21] = Clostridium beijerinckii, B504, 24 h; read-out: Minimal Inhibition Concentration (MIC) C. beijerinckii B504
[22] = 24 h; read-out: Minimal Inhibition Concentration (MIC) C. ihumii AP5
[23] = Table 1; 128 to 2 μM, RCM medium, anaerobic, 24 h
[24] = Table 1, 128 to 2 μM, RCM medium, anaerobic, 24 h

Molecule	MIC [1, 21] [µM]	MIC [2, 22] [µM]	MIC [3] [µM]	MIC [4] [µM]	MIC [5] [µM]	MIC [7] [µM]	MIC [8] [µM]	MIC [9] [µM]	MIC [10] [µM]	MIC [11] [µM]	MIC [12] [µM]	MIC [13] [µM]	MIC [14] [µM]	MIC [15] [µM]	MIC [16] [µM]	MIC [17] [µM]	MIC [18] [µM]	MIC (μM) L-11 + 4 μM [18] [µM]	further results
CCCCOc1ccc(/C=C/c2cc(OS(=O)(=O)O)cc(OS(=O)(=O)O)c2)cc1 [compound 14, 4′-butyl-3,5-disulfate resveratrol]	16 (≈ 7.11 µg/mL)	32 (≈ 14.2 µg/mL)	32 (≈ 14.2 µg/mL)	64 (≈ 28.4 µg/mL)	32 (≈ 14.2 µg/mL)	16 (≈ 7.11 µg/mL)	32 (≈ 14.2 µg/mL)	128 (≈ 56.9 µg/mL)	64 (≈ 28.4 µg/mL)	16 (≈ 7.11 µg/mL)	32 (≈ 14.2 µg/mL)	21.3 ± 5.3 (≈ 9.47 µg/mL)	128 (≈ 56.9 µg/mL)	32 (≈ 14.2 µg/mL)	32 (≈ 14.2 µg/mL)	32 (≈ 14.2 µg/mL)	–	–	antibacterial activity against the Gram-positive panel [6]: active against all Gram-positive bacterial strains examined
CC(C)[Si](Oc1cc(/C=C/c2ccc(OS(=O)(=O)O)cc2)cc(OS(=O)(=O)O)c1)(C(C)C)C(C)C [compound 35, 3,4′-Disulfate-5-triisopropylsilyl resveratrol]	–	–	13.3 ± 2.6 (≈ 7.24 µg/mL)	13.3 ± 2.6 (≈ 7.24 µg/mL)	13.3 ± 2.6 (≈ 7.24 µg/mL)	8 (≈ 4.36 µg/mL)	16 (≈ 8.72 µg/mL)	21.3 ± 5.3 (≈ 11.6 µg/mL)	16 (≈ 8.72 µg/mL)	64 (≈ 34.9 µg/mL)	21.3 ± 5.3 (≈ 11.6 µg/mL)	64 (≈ 34.9 µg/mL)	16 (≈ 8.72 µg/mL)	16 (≈ 8.72 µg/mL)	64 (≈ 34.9 µg/mL)	32 (≈ 17.4 µg/mL)	> 128	21.6 ± 5.3	MIC ([1]; Clostridium beijerinckii, B504, 24 h, read-out: Minimal Inhibition Concentration (MIC) C. beijerinckii B504): 64 µM (≈ 34.9 µg/mL); MIC ([2]; 24 h, read-out: Minimal Inhibition Concentration (MIC) C. ihumii AP5): 64 µM (≈ 34.9 µg/mL)
3-butyl resveratrol [compound 9]	–	–	–	–	–	–	–	–	–	–	–	–	–	–	–	–	–	–	Minimal Inhibition Concentration (MIC) C. beijerinckii B504 [1, 23]: 26.6 ± 5.3 µM; Minimal Inhibition Concentration (MIC) C. ihumii AP5 [2, 23]: 64 ± 0 µM; Minimal Inhibition Concentration (MIC) S.aureus LMG8224 [3]: 64 ± 0 µM; Minimal Inhibition Concentration (MIC) E. faecium LMG16003 [4]: 128 ± 0 µM; Minimal Inhibition Concentration (MIC) E. faecalis LMG08222 [5]: 128 ± 0 µM; Minimal Inhibition Concentration (MIC) E. faecalis LMG16216 [7]: 128 ± 0 µM; Minimal Inhibition Concentration (MIC) S.aureus LMG15975 [8]: 32 ± 0 µM; Minimal Inhibition Concentration (MIC) B. cereus ATCC14579 [9]: 32 ± 0 µM; Minimal Inhibition Concentration (MIC) E. faecalis V583 [10]: 128 ± 0 µM; Minimal Inhibition Concentration (MIC) C. tetani CECT4629 [11, 24]: 16 ± 0 µM; Minimal Inhibition Concentration (MIC) S.aureus LMG10147 [12]: 64 ± 0 µM; Minimal Inhibition Concentration (MIC) C. botulinum CECT551 [13, 24]: 32 ± 0 µM; Minimal Inhibition Concentration (MIC) B. cereus ATCC10987 [14]: 32 ± 0 µM; Minimal Inhibition Concentration (MIC) E. faecium LMG11423 [15]: 64 ± 0 µM; Minimal Inhibition Concentration (MIC) C. perfringens CECT376 [16]: 64 ± 0 µM; Minimal Inhibition Concentration (MIC) C. difficile CECT531 [17]: 64 ± 0 µM
CCCCCCCCCCCC(=O)OC[C@H]1O[C@@H](Oc2cc(O)cc(/C=C/c3ccc(O)cc3)c2)[C@H](O)[C@@H](O)[C@@H]1O [compound 4]	16 (≈ 9.16 µg/mL)	32 (≈ 18.3 µg/mL)	16 (≈ 9.16 µg/mL)	53.3 ± 10.6 (≈ 30.5 µg/mL)	32 (≈ 18.3 µg/mL)	64 (≈ 36.7 µg/mL)	16 (≈ 9.16 µg/mL)	8 (≈ 4.58 µg/mL)	53.3 ± 10.6 (≈ 30.5 µg/mL)	–	16 (≈ 9.16 µg/mL)	8 (≈ 4.58 µg/mL)	8 (≈ 4.58 µg/mL)	53.3 ± 10.6 (≈ 30.5 µg/mL)	32 (≈ 18.3 µg/mL)	128 (≈ 73.3 µg/mL)	> 128	6.6 ± 1.3	MIC [6]: 8 to 16 µM (≈ 4.58 to 9.16 µg/mL)
CC(C)C[C@@H]1NC(=O)[C@H](CCCN)NC(=O)[C@H](C(C)C)NC(=O)[C@@H]2CCCN2C(=O)[C@@H](Cc2ccccc2)NC(=O)[C@H](CC(C)C)NC(=O)[C@H](CCCN)NC(=O)[C@H](C(C)C)NC(=O)[C@@H]2CCCN2C(=O)[C@@H](Cc2ccccc2)NC1=O [gramicidin S, Gramicidin S] (cyclo(V[Orn]L[dF]PV[Orn]L[dF]P))	–	–	–	–	–	–	–	–	–	–	–	–	–	–	–	–	–	–	membrane potential change (DiSC3(5)) [19]: induced a strong membrane depolarization
N#CC(C#N)=NNc1cccc(Cl)c1 [CCCP, carbonyl cyanide m-chlorophenyl hydrazone]	–	–	–	–	–	–	–	–	–	–	–	–	–	–	–	–	–	–	intracellular ATP levels [20]: a time reduction of these levels was observed
